Assay results: PubChem BioAssay AID1259407 (Chemical Carcinogenesis Research Information System (CCRIS), 2018)
Calls of active or inactive are those of the source. The rule behind the calls is not given here.

Tested on: CCRIS mutagenicity, Ames/micronucleus/aberration tests
Test: CCRIS mutagenicity studies
[1] = Test System: AMES SALMONELLA TYPHIMURIUM, Strain/Indicator: TA98, Metabolic Activation: NONE, Method: STANDARD PLATE
[2] = Test System: AMES SALMONELLA TYPHIMURIUM, Strain/Indicator: TA100, Metabolic Activation: NONE, Method: STANDARD PLATE

O=C1CN(/N=C/c2ccc([N+](=O)[O-])o2)C(=O)N1
mutagenic call (End Point: IN VITRO CHROMOSOMAL ABERRATIONS, Test System: CHO CELLS, Metabolic Activation: NONE): active; positive | mutagenic call (End Point: IN VITRO CHROMOSOMAL ABERRATIONS, Test System: CHO CELLS, Metabolic Activation: RAT, LIVER, S-9, AROCLOR 1254): active; positive | mutagenic call (Test System: AMES SALMONELLA TYPHIMURIUM, Strain/Indicator: TA97, Metabolic Activation: NONE, Method: FLUCTUATION TEST): active; positive | mutagenic call (Test System: AMES SALMONELLA TYPHIMURIUM, Strain/Indicator: TA97, Metabolic Activation: NONE, Method: STANDARD PLATE): active; positive | mutagenic call (Test System: AMES SALMONELLA TYPHIMURIUM, Strain/Indicator: TA98(1,8-DNP6), Metabolic Activation: NONE, Method: STANDARD PLATE): active; positive | mutagenic call (Test System: AMES SALMONELLA TYPHIMURIUM, Strain/Indicator: TA98(1,8-DNP6), Metabolic Activation: RAT, LIVER, S-9, 3-METHYLCHOLANTHRENE, Method: STANDARD PLATE): active; positive | mutagenic call (Test System: AMES SALMONELLA TYPHIMURIUM, Strain/Indicator: TA98(NR), Metabolic Activation: NONE, Method: STANDARD PLATE): active; positive | mutagenic call (Test System: AMES SALMONELLA TYPHIMURIUM, Strain/Indicator: TA98(NR), Metabolic Activation: RAT, LIVER, S-9, 3-METHYLCHOLANTHRENE, Method: STANDARD PLATE): active; positive | mutagenic call (Test System: AMES SALMONELLA TYPHIMURIUM, Strain/Indicator: TA98, Metabolic Activation: HAMSTER, LIVER, S-9, AROCLOR 1254, Method: PREINCUBATION): active; positive | mutagenic call (Test System: AMES SALMONELLA TYPHIMURIUM, Strain/Indicator: TA98, Metabolic Activation: NONE): inactive; negative | mutagenic call (Test System: AMES SALMONELLA TYPHIMURIUM, Strain/Indicator: TA98, Metabolic Activation: NONE, Method: FLUCTUATION (MICROTITER)): active; positive | mutagenic call (Test System: AMES SALMONELLA TYPHIMURIUM, Strain/Indicator: TA98, Metabolic Activation: NONE, Method: PREINCUBATION): active; positive | mutagenic call [1]: active; positive | mutagenic call (Test System: AMES SALMONELLA TYPHIMURIUM, Strain/Indicator: TA98, Metabolic Activation: RAT, LIVER, S-9, 3-METHYLCHOLANTHRENE, Method: STANDARD PLATE): active; positive | mutagenic call (Test System: AMES SALMONELLA TYPHIMURIUM, Strain/Indicator: TA98, Metabolic Activation: RAT, LIVER, S-9, AROCLOR 1254, Method: PREINCUBATION): active; positive | mutagenic call (Test System: AMES SALMONELLA TYPHIMURIUM, Strain/Indicator: TA98, Metabolic Activation: S-9): inactive; negative | mutagenic call (Test System: AMES SALMONELLA TYPHIMURIUM, Strain/Indicator: TA100, Metabolic Activation: HAMSTER, LIVER, S-9, AROCLOR 1254, Method: PREINCUBATION): active; positive | mutagenic call (Test System: AMES SALMONELLA TYPHIMURIUM, Strain/Indicator: TA100, Metabolic Activation: NONE): active; positive | mutagenic call (Test System: AMES SALMONELLA TYPHIMURIUM, Strain/Indicator: TA100, Metabolic Activation: NONE, Method: PREINCUBATION): active; positive | mutagenic call [2]: active; positive | mutagenic call (Test System: AMES SALMONELLA TYPHIMURIUM, Strain/Indicator: TA100, Metabolic Activation: RAT, LIVER, S-9, AROCLOR 1254, Method: PREINCUBATION): active; positive | mutagenic call (Test System: AMES SALMONELLA TYPHIMURIUM, Strain/Indicator: TA100, Metabolic Activation: S-9): active; positive | mutagenic call (Test System: AMES SALMONELLA TYPHIMURIUM, Strain/Indicator: TA102, Metabolic Activation: NONE, Method: STANDARD PLATE): active; positive | mutagenic call (Test System: AMES SALMONELLA TYPHIMURIUM, Strain/Indicator: TA1535, Metabolic Activation: HAMSTER, LIVER, S-9, AROCLOR 1254, Method: PREINCUBATION): inactive; negative | mutagenic call (Test System: AMES SALMONELLA TYPHIMURIUM, Strain/Indicator: TA1535, Metabolic Activation: NONE, Method: PREINCUBATION): inactive; negative | mutagenic call (Test System: AMES SALMONELLA TYPHIMURIUM, Strain/Indicator: TA1535, Metabolic Activation: RAT, LIVER, S-9, AROCLOR 1254, Method: PREINCUBATION): inactive; negative | mutagenic call (Test System: AMES SALMONELLA TYPHIMURIUM, Strain/Indicator: TA1537, Metabolic Activation: HAMSTER, LIVER, S-9, AROCLOR 1254, Method: PREINCUBATION): inactive; negative | mutagenic call (Test System: AMES SALMONELLA TYPHIMURIUM, Strain/Indicator: TA1537, Metabolic Activation: NONE, Method: FLUCTUATION (MICROTITER)): inactive; negative | mutagenic call (Test System: AMES SALMONELLA TYPHIMURIUM, Strain/Indicator: TA1537, Metabolic Activation: NONE, Method: PREINCUBATION): inactive; negative | mutagenic call (Test System: AMES SALMONELLA TYPHIMURIUM, Strain/Indicator: TA1537, Metabolic Activation: RAT, LIVER, S-9, AROCLOR 1254, Method: PREINCUBATION): inactive; negative | mutagenic call (Test System: AMES SALMONELLA TYPHIMURIUM, Strain/Indicator: TA2638, Metabolic Activation: NONE, Method: STANDARD PLATE): active; positive | mutagenic call (Test System: AMES SALMONELLA TYPHIMURIUM, Strain/Indicator: TA7001, Metabolic Activation: NONE, Method: FLUCTUATION (MICROTITER)): inactive; negative | mutagenic call (Test System: AMES SALMONELLA TYPHIMURIUM, Strain/Indicator: TA7002, Metabolic Activation: NONE, Method: FLUCTUATION (MICROTITER)): active; positive | mutagenic call (Test System: AMES SALMONELLA TYPHIMURIUM, Strain/Indicator: TA7003, Metabolic Activation: NONE, Method: FLUCTUATION (MICROTITER)): inactive; negative | mutagenic call (Test System: AMES SALMONELLA TYPHIMURIUM, Strain/Indicator: TA7004, Metabolic Activation: NONE, Method: FLUCTUATION (MICROTITER)): active; positive | mutagenic call (Test System: AMES SALMONELLA TYPHIMURIUM, Strain/Indicator: TA7005, Metabolic Activation: NONE, Method: FLUCTUATION (MICROTITER)): active; positive | mutagenic call (Test System: AMES SALMONELLA TYPHIMURIUM, Strain/Indicator: TA7006, Metabolic Activation: NONE, Method: FLUCTUATION (MICROTITER)): active; positive | mutagenic call (Test System: CHINESE HAMSTER OVARY, Strain/Indicator: CHO-AS52, Metabolic Activation: NONE): inactive; negative | mutagenic call (Test System: CHINESE HAMSTER OVARY, Strain/Indicator: CHO-AS52, Metabolic Activation: RAT, LIVER, S-9, 3-METHYLCHOLANTHRENE): inactive; negative | mutagenic call (Test System: CHINESE HAMSTER OVARY, Strain/Indicator: CHO-K1-BH4, Metabolic Activation: NONE): inactive; negative | mutagenic call (Test System: CHINESE HAMSTER OVARY, Strain/Indicator: CHO-K1-BH4, Metabolic Activation: RAT, LIVER, S-9, 3-METHYLCHOLANTHRENE): active; positive | mutagenic call (Test System: CHINESE HAMSTER OVARY, Strain/Indicator: CHO-UV5, Metabolic Activation: NONE): inactive; negative | mutagenic call (Test System: CHINESE HAMSTER OVARY, Strain/Indicator: CHO-UV5, Metabolic Activation: RAT, LIVER, S-9, 3-METHYLCHOLANTHRENE): active; positive | mutagenic call (Test System: E. COLI, Strain/Indicator: EE97, Metabolic Activation: NONE, Method: FLUCTUATION TEST): active; positive | mutagenic call (Test System: E. COLI, Strain/Indicator: WP2 (PKM101), Metabolic Activation: NONE, Method: STANDARD PLATE): active; positive | mutagenic call (Test System: E. COLI, Strain/Indicator: WP2, Metabolic Activation: NONE, Method: FLUCTUATION TEST): inactive; negative | mutagenic call (Test System: E. COLI, Strain/Indicator: WP2, Metabolic Activation: NONE, Method: SPOT): active; positive | mutagenic call (Test System: E. COLI, Strain/Indicator: WP2 UVRA (PKM101), Metabolic Activation: NONE, Method: STANDARD PLATE): active; positive | mutagenic call (Test System: E. COLI, Strain/Indicator: WP2 UVRA, Metabolic Activation: NONE, Method: SPOT): active; positive | mutagenic call (Test System: E. COLI, Strain/Indicator: WP2 UVRA, Metabolic Activation: NONE, Method: STANDARD PLATE): active; positive | mutagenic call (Test System: MOUSE LYMPHOMA, Strain/Indicator: L5178Y (TK+/TK-), Metabolic Activation: NONE, Method: SUSPENSION/PLATE): active; positive

CC(C)CN(C(=O)CCCl)c1snc2ccccc12
mutagenic call [1]: inactive; negative | mutagenic call (Test System: AMES SALMONELLA TYPHIMURIUM, Strain/Indicator: TA98, Metabolic Activation: S-9, Method: STANDARD PLATE): inactive; negative | mutagenic call [2]: inactive; negative | mutagenic call (Test System: AMES SALMONELLA TYPHIMURIUM, Strain/Indicator: TA100, Metabolic Activation: S-9, Method: STANDARD PLATE): inactive; negative | mutagenic call (Test System: AMES SALMONELLA TYPHIMURIUM, Strain/Indicator: TA1535, Metabolic Activation: NONE, Method: STANDARD PLATE): inactive; negative | mutagenic call (Test System: AMES SALMONELLA TYPHIMURIUM, Strain/Indicator: TA1535, Metabolic Activation: S-9, Method: STANDARD PLATE): inactive; negative | mutagenic call (Test System: AMES SALMONELLA TYPHIMURIUM, Strain/Indicator: TA1537, Metabolic Activation: NONE, Method: STANDARD PLATE): inactive; negative | mutagenic call (Test System: AMES SALMONELLA TYPHIMURIUM, Strain/Indicator: TA1537, Metabolic Activation: S-9, Method: STANDARD PLATE): inactive; negative
